Data: US7402548B2, “Benzoxazole compounds, process for producing the same and herbicides” (Kyoyu Agri Co., Ltd., priority 2000, dated 2008)

What was measured:
[1] = tested on: common lambsquarters; experiment: Foliar spread test for upland field; format: in vivo, Chenopodium album; parameters: key: 0 = normal development, 5 = all killed (6 ranks vs. untreated); details: foliar spray, 500 ppm, 3 weeks, glass house 25° C.
Description: (§1) The herbicidal effects are evaluated according to the following 6 ranks as compared with non-treated district. (0: normal development, 1: Less damaged, 2: Slightly damaged, 3: Moderately damaged, 4: Severely damaged, 5: All killed). Incidentally, “-” in the column means not investigated.
(§2) Wagner pots, each having an area of 1/5000 are, were packed with volcanic ash soil and then each seed of corn, soybean, cotton, wheat, solgum, sugar beat, Large crabgrass, barnyardgrjass, green foxtail, blackgrass, annual bluegrass, common lambsquarters, livid amaranth, velvetleaf, morning glory, Xanthium pensylvanicum and Cassia obtusifolia was planted, covered with soil and grown in a glass house at an average temperature of 25° C. for about 2 weeks.
(§3) Each wettable powder of the desired compounds (I) shown in Tables 1 to 21, 24, 25, 28 and 29 prepared in accordance with Example 2 was diluted to 500 ppm with water containing a surfactant (0.5%) and then uniformly sprayed on the above respective plants.
(§4) After these plants were controlled in a glass house at an average temperature of 25° C. for 3 weeks, the herbicidal effects thereof were investigated.
(§5) The herbicidal effects were evaluated according to the evaluation method described in the above (1).

[2] = tested on: morning glory; experiment: Foliar spread test for upland field; format: in vivo, Ipomoea spps.; parameters: key: 0 = normal development, 5 = all killed (6 ranks vs. untreated); details: foliar spray, 500 ppm, 3 weeks, glass house 25° C.
Description: as §1, §2, §3, §4, §5

[3] = tested on: common lambsquarters; experiment: Soil treatment test for upland field; format: in vivo, Chenopodium album; parameters: key: 0 = normal development, 5 = all killed; details: 500 g/ha, 3 weeks, glass house 25° C.
Description: as §1
(§6) Wagner pots, each having an area of 1/5000 are, were packed with Ube soil (alluvial soil), and then each seed of corn, soybean, cotton, wheat, solgum, sugar beat, Large crabgrass, barnyard grass, green foxtail, blackgrass, annual bluegrass, common lambsquarters, livid amaranth, velvetleaf, morning glory, common Cocklebur (Xanthium strumarium) and sicklepod (Cassia obtusifolia) were planted and covered with soil.
(§7) Each wettable powder of the desired compounds (I) shown in Tables 1 to 21, 24, 25, 28 and 29 prepared in accordance with Example 2 was diluted with water containing a surfactant (0.05%) and uniformly sprayed on the surface of each soil so that an effective concentration of the compound (I) in each herbicide became 500 g/ha.
(§8) These plants were controlled in a glass house at an average temperature of 25° C. for 3 weeks, and then herbicidal effects thereof were investigated.
as §5

[4] = tested on: green foxtail; experiment: Soil treatment test for upland field; format: in vivo, Setaria viridis; parameters: key: 0 = normal development, 5 = all killed; details: 500 g/ha, 3 weeks, glass house 25° C.
Description: as §1, §6, §7, §8, §5

[5] = tested on: annual bluegrass; experiment: Foliar spread test for upland field; format: in vivo, Poa annua; parameters: key: 0 = normal development, 5 = all killed (6 ranks vs. untreated); details: foliar spray, 500 ppm, 3 weeks, glass house 25° C.
Description: as §1, §2, §3, §4, §5

[6] = tested on: barnyardgrjass; experiment: Foliar spread test for upland field; format: in vivo, Eschinochloa crusgalli; parameters: key: 0 = normal development, 5 = all killed (6 ranks vs. untreated); details: foliar spray, 500 ppm, 3 weeks, glass house 25° C.
Description: as §1, §2, §3, §4, §5

[7] = tested on: Large crabgrass; experiment: Foliar spread test for upland field; format: in vivo, Digitaria adscendens; parameters: key: 0 = normal development, 5 = all killed (6 ranks vs. untreated); details: foliar spray, 500 ppm, 3 weeks, glass house 25° C.
Description: as §1, §2, §3, §4, §5

[8] = tested on: blackgrass; experiment: Soil treatment test for upland field; format: in vivo, Alopecurus aegualis; parameters: key: 0 = normal development, 5 = all killed; details: 500 g/ha, 3 weeks, glass house 25° C.
Description: as §1, §6, §7, §8, §5

[9] = tested on: morning glory; experiment: Soil treatment test for upland field; format: in vivo, Ipomoea spps.; parameters: key: 0 = normal development, 5 = all killed; details: 500 g/ha, 3 weeks, glass house 25° C.
Description: as §1, §6, §7, §8, §5

[10] = tested on: livid amaranth; experiment: Soil treatment test for upland field; format: in vivo, Amaranthus lividus; parameters: key: 0 = normal development, 5 = all killed; details: 500 g/ha, 3 weeks, glass house 25° C.
Description: as §1, §6, §7, §8, §5

[11] = tested on: velvetleaf; experiment: Soil treatment test for upland field; format: in vivo, Abutilon theophrasti; parameters: key: 0 = normal development, 5 = all killed; details: 500 g/ha, 3 weeks, glass house 25° C.
Description: as §1, §6, §7, §8, §5

[12] = tested on: sugar beat; experiment: Soil treatment test for upland field; format: in vivo; parameters: key: 0 = normal development, 5 = all killed; details: 500 g/ha, 3 weeks, glass house 25° C.
Description: as §1, §6, §7, §8, §5

[13] = tested on: corn; experiment: Soil treatment test for upland field; format: in vivo; parameters: key: 0 = normal development, 5 = all killed; details: 500 g/ha, 3 weeks, glass house 25° C.
Description: as §1, §6, §7, §8, §5

[14] = tested on: wheat; experiment: Soil treatment test for upland field; format: in vivo; parameters: key: 0 = normal development, 5 = all killed; details: 500 g/ha, 3 weeks, glass house 25° C.
Description: as §1, §6, §7, §8, §5

[15] = tested on: solgum; experiment: Soil treatment test for upland field; format: in vivo; parameters: key: 0 = normal development, 5 = all killed; details: 500 g/ha, 3 weeks, glass house 25° C.
Description: as §1, §6, §7, §8, §5

[16] = tested on: sugar beat; experiment: Foliar spread test for upland field; format: in vivo; parameters: key: 0 = normal development, 5 = all killed (6 ranks vs. untreated); details: foliar spray, 500 ppm, 3 weeks, glass house 25° C.
Description: as §1, §2, §3, §4, §5

[17] = tested on: soybean; experiment: Foliar spread test for upland field; format: in vivo; parameters: key: 0 = normal development, 5 = all killed (6 ranks vs. untreated); details: foliar spray, 500 ppm, 3 weeks, glass house 25° C.
Description: as §1, §2, §3, §4, §5

[18] = tested on: cotton; experiment: Foliar spread test for upland field; format: in vivo; parameters: key: 0 = normal development, 5 = all killed (6 ranks vs. untreated); details: foliar spray, 500 ppm, 3 weeks, glass house 25° C.
Description: as §1, §2, §3, §4, §5

[19] = tested on: corn; experiment: Foliar spread test for upland field; format: in vivo; parameters: key: 0 = normal development, 5 = all killed (6 ranks vs. untreated); details: foliar spray, 500 ppm, 3 weeks, glass house 25° C.
Description: as §1, §2, §3, §4, §5

[20] = tested on: wheat; experiment: Foliar spread test for upland field; format: in vivo; parameters: key: 0 = normal development, 5 = all killed (6 ranks vs. untreated); details: foliar spray, 500 ppm, 3 weeks, glass house 25° C.
Description: as §1, §2, §3, §4, §5

[21] = tested on: solgum; experiment: Foliar spread test for upland field; format: in vivo; parameters: key: 0 = normal development, 5 = all killed (6 ranks vs. untreated); details: foliar spray, 500 ppm, 3 weeks, glass house 25° C.
Description: as §1, §2, §3, §4, §5

[22] = tested on: livid amaranth; experiment: Foliar spread test for upland field; format: in vivo, Amaranthus lividus; parameters: key: 0 = normal development, 5 = all killed (6 ranks vs. untreated); details: foliar spray, 500 ppm, 3 weeks, glass house 25° C.
Description: as §1, §2, §3, §4, §5

[23] = tested on: green foxtail; experiment: Foliar spread test for upland field; format: in vivo, Setaria viridis; parameters: key: 0 = normal development, 5 = all killed (6 ranks vs. untreated); details: foliar spray, 500 ppm, 3 weeks, glass house 25° C.
Description: as §1, §2, §3, §4, §5

[24] = tested on: barnyard grass; experiment: Soil treatment test for upland field; format: in vivo, Eschinochloa crusgalli; parameters: key: 0 = normal development, 5 = all killed; details: 500 g/ha, 3 weeks, glass house 25° C.
Description: as §1, §6, §7, §8, §5

[25] = tested on: Large crabgrass; experiment: Soil treatment test for upland field; format: in vivo, Digitaria adscendens; parameters: key: 0 = normal development, 5 = all killed; details: 500 g/ha, 3 weeks, glass house 25° C.
Description: as §1, §6, §7, §8, §5

[26] = tested on: annual bluegrass; experiment: Soil treatment test for upland field; format: in vivo, Poa annua; parameters: key: 0 = normal development, 5 = all killed; details: 500 g/ha, 3 weeks, glass house 25° C.
Description: as §1, §6, §7, §8, §5

[27] = tested on: velvetleaf; experiment: Foliar spread test for upland field; format: in vivo, Abutilon theophrasti; parameters: key: 0 = normal development, 5 = all killed (6 ranks vs. untreated); details: foliar spray, 500 ppm, 3 weeks, glass house 25° C.
Description: as §1, §2, §3, §4, §5

[28] = tested on: blackgrass; experiment: Foliar spread test for upland field; format: in vivo, Alopecurus aegualis; parameters: key: 0 = normal development, 5 = all killed (6 ranks vs. untreated); details: foliar spray, 500 ppm, 3 weeks, glass house 25° C.
Description: as §1, §2, §3, §4, §5

Row | Structure (SMILES) | Effects Common lambsquarters [1] | Effects Morning glory [2] | Effects Common lambsquarters [3] | Effects Green foxtail [4] | Effects Annual bluegrass [5] | Effects Barnyardgrass [6] | Effects Large crabgrass [7] | Effects Blackgrass [8] | Effects Morning glory [9] | Effects Livid amaranth [10] | Effects Velvetleaf [11] | Effects Sugar beat [12] | Effects Corn [13] | Effects Wheat [14] | Effects Solgum [15] | Effects Sugar beat [16] | Effects Soybean [17] | Effects Sotton [18] | Effects Corn [19] | Effects Wheat [20] | further results
1 | CC(=Cc1cccc(C(F)(F)F)c1)c1nc2cc(Cl)ccc2o1 [I-c-53] | 5 | 5 | 5 | 5 | 4 | 1 | 4 | 5 | 2 | 5 | 1 | 5 | 1 | 1 | 0 | 5 | 4 | 3 | 3 | 1 | Effects Solgum [21]: 1; Effects Livid amaranth [22]: 5; Effects Green foxtail [23]: 5; Effects Barnyardgrass [24]: 5; Effects Large crabgrass [25]: 5; Effects Annual bluegrass [26]: 5; Effects Velvetleaf [27]: 3; Effects Blackgrass [28]: 4
2 | CCC(=Cc1cccc(C(F)(F)F)c1)c1nc2cc(Br)ccc2o1 [I-c-67] | 5 | 5 | 5 | 5 | 4 | 3 | 4 | 5 | 4 | 5 | 5 | 5 | 2 | 1 | 5 | 4 | 5 | 5 | 3 | 2 | Effects Solgum [21]: 3; Effects Livid amaranth [22]: 5; Effects Green foxtail [23]: 4; Effects Barnyardgrass [24]: 5; Effects Large crabgrass [25]: 5; Effects Annual bluegrass [26]: 5; Effects Velvetleaf [27]: 4; Effects Blackgrass [28]: 4
3 | CCCC(=Cc1cccc(C(F)(F)F)c1)c1nc2cc([N+](=O)[O-])ccc2o1 [I-c-74] | 5 | 5 | 5 | 5 | 4 | 2 | 4 | 4 | 5 | 5 | 5 | 5 | 2 | 1 | 2 | 4 | 5 | 5 | 2 | 2 | Effects Solgum [21]: 2; Effects Livid amaranth [22]: 5; Effects Green foxtail [23]: 5; Effects Barnyardgrass [24]: 5; Effects Large crabgrass [25]: 5; Effects Annual bluegrass [26]: 5; Effects Velvetleaf [27]: 4; Effects Blackgrass [28]: 2
4 | CCCC(=Cc1cccc(C(F)(F)F)c1)c1nc2cc(C#N)ccc2o1 [I-c-83] | 5 | 5 | 5 | 5 | 4 | 2 | 4 | 5 | 5 | 5 | 5 | 5 | 2 | 1 | 1 | 5 | 4 | 5 | 3 | 2 | Effects Solgum [21]: 3; Effects Livid amaranth [22]: 5; Effects Green foxtail [23]: 5; Effects Barnyardgrass [24]: 4; Effects Large crabgrass [25]: 5; Effects Annual bluegrass [26]: 5; Effects Velvetleaf [27]: 4; Effects Blackgrass [28]: 4
